In paper PMC6160999, “Pharmacokinetics, Tissue Distribution and Excretion of a Novel Diuretic (PU-48) in Rats” (Pharmaceutics, 2018):
Read-outs that look alike come from different tables or passages of the source.

Experiments:
[1] = Tissue distribution after single oral PU-48 SNEDDS; format: in vivo; conditions: rat, oral PU-48 SNEDDS 12 mg/kg
Protocol: Internal standard (IS, 25 μL) was added to 50 μL plasma, urine, or bile sample in a clean tube, placed into a water bath at 37 °C, and dried under a gentle stream of nitrogen gas, followed by the addition of 0.5 mL of ethyl acetate for liquid-liquid extraction. The mixture was shaken by a vortex mixer for 3 min, and then centrifuged at 8000 rpm (4200× g) for 10 min at 4 °C. After centrifugation, the upper organic phase was transferred into a clean centrifuge tube and then dried it again. The combined upper organic phases were evaporated to dryness at 37 °C under a gentle stream of nitrogen gas. The residue was reconstituted with 50 μL acetonitrile and then centrifuged at 13,000 rpm (12,000× g) for 10 min at 4 °C, the upper liquid was transferred into sample vials. Finally, 5 μL aliquots were injected into the LC–MS/MS system to analyze. Each tissue samples were homogenized in normal saline (0.9% NaCl, 1:3, w/v), and then centrifuged at 10,000× g for 10 min to get the supernatant. Other steps were the same as plasma sample preparation.
Thirty rats were divided randomly into five groups and the rats were given single orally administration of PU-48 (12 mg/kg, 1.2 mg/mL in the SNEDDS formulation). […] After the final time point, the rats were sacrificed and thirteen tissues (liver, spleen, lung, kidney, heart, muscle, colon, intestine, stomach, bladder, testicle, adipose, brain) were collected. Tissues samples were rinsed with ice-cold 0.9% normal saline and blotted dry with filter paper. All the samples were weighted and stored at −20 °C until analysis.

[2] = cited from earlier work
[3] = bladder, read-out: Concentration of PU-48 in bladder
[4] = brain, read-out: Concentration of PU-48 in brain
[5] = colon, read-out: Concentration of PU-48 in colon
[6] = fat, read-out: Concentration of PU-48 in fat
[7] = heart, read-out: Concentration of PU-48 in heart
[8] = intestine, read-out: Concentration of PU-48 in intestine
[9] = kidney, read-out: Concentration of PU-48 in kidney
[10] = liver, read-out: Concentration of PU-48 in liver
[11] = lung, read-out: Concentration of PU-48 in lung
[12] = male, testicle, read-out: Concentration of PU-48 in testicle
[13] = muscle, read-out: Concentration of PU-48 in muscle
[14] = plasma, read-out: Concentration of PU-48 in plasma
[15] = spleen, read-out: Concentration of PU-48 in spleen
[16] = stomach, read-out: Concentration of PU-48 in stomach

Compound `COC(=O)c1sc2nc3ccc(OC)cc3cc2c1N` [PU-48, Methyl 3-amino-6-methoxythieno [2,3-b] quinoline-2-carboxylate] has a concentration at 0.5 h [1, 3] of 258 ± 94.2 ng/g, a concentration at 1 h [1, 3] of 368 ± 124 ng/g and a concentration at 6 h [1, 3] of 43.4 ± 10.7 ng/g. The concentration at 12 h [1, 3] was 6.1 ± 3.2 ng/g, the concentration at 24 h [1, 3] was 8.6 ± 6.5 ng/g and the concentration at 0.5 h [1, 4] was 111 ± 23.3 ng/g. The concentration at 1 h [1, 4] was 68.1 ± 52.7 ng/g, the concentration at 6 h [1, 4] was 15.7 ± 19.3 ng/g and the concentration at 12 h [1, 4] was 1.7 ± 1.5 ng/g. For the same compound, the concentration at 0.5 h [1, 5] was 90.4 ± 30 ng/g, the concentration at 1 h [1, 5] was 172 ± 89.5 ng/g and the concentration at 6 h [1, 5] was 35.2 ± 14.7 ng/g. For the same compound, the concentration at 12 h [1, 5] was 28.6 ± 21.7 ng/g, the concentration at 24 h [1, 5] was 14.1 ± 5.6 ng/g and the concentration at 0.5 h [1, 6] was 481 ± 398 ng/g. The concentration at 1 h [1, 6] was 99.3 ± 26.9 ng/g, the concentration at 6 h [1, 6] was 52.3 ± 43.2 ng/g and the concentration at 12 h [1, 6] was 2.7 ± 1.9 ng/g. It also gave a concentration at 24 h [1, 6] of 0.7 ± 0.6 ng/g, a concentration at 0.5 h [1, 7] of 251 ± 78.4 ng/g and a concentration at 1 h [1, 7] of 125 ± 31 ng/g. For the same compound, the concentration at 6 h [1, 7] was 11.3 ± 11.2 ng/g, the concentration at 24 h [1, 7] was 0.5 ng/g and the concentration at 0.5 h [1, 8] was 655 ± 89.3 ng/g. For the same compound, the concentration at 1 h [1, 8] was 777 ± 277 ng/g, the concentration at 6 h [1, 8] was 209 ± 166 ng/g and the concentration at 12 h [1, 8] was 45.4 ± 18.9 ng/g. The concentration at 24 h [1, 8] was 9 ± 4.7 ng/g, the concentration at 0.5 h [1, 9] was 416 ± 138 ng/g and the concentration at 1 h [1, 9] was 297 ± 241 ng/g. It also gave a concentration at 6 h [1, 9] of 44.5 ± 33.9 ng/g, a concentration at 12 h [1, 9] of 4.7 ± 1.1 ng/g and a concentration at 24 h [1, 9] of 5.3 ± 3.4 ng/g. The concentration at 0.5 h [1, 10] was 622 ± 183 ng/g, the concentration at 1 h [1, 10] was 534 ± 228 ng/g and the concentration at 6 h [1, 10] was 42.7 ± 27.3 ng/g. For the same compound, the concentration at 12 h [1, 10] was 13.4 ± 3.1 ng/g, the concentration at 24 h [1, 10] was 20.4 ± 12.2 ng/g and the concentration at 0.5 h [1, 11] was 231 ± 79.3 ng/g. For the same compound, the concentration at 1 h [1, 11] was 174 ± 91.4 ng/g, the concentration at 6 h [1, 11] was 7.2 ± 5.7 ng/g and the concentration at 12 h [1, 11] was 0.9 ± 0.1 ng/g. It also gave a concentration at 24 h [1, 11] of 1.3 ± 0.9 ng/g, a concentration at 0.5 h [1, 12] of 34.2 ± 21.2 ng/g and a concentration at 1 h [1, 12] of 51.7 ± 24.4 ng/g. The concentration at 6 h [1, 12] was 9.5 ± 8.5 ng/g, the concentration at 12 h [1, 12] was 1.5 ± 0.7 ng/g and the concentration at 24 h [1, 12] was 1.4 ± 1.1 ng/g. The concentration at 0.5 h [1, 13] was 39.8 ± 28.6 ng/g, the concentration at 1 h [1, 13] was 52 ± 25.5 ng/g and the concentration at 6 h [1, 13] was 4.5 ± 3.5 ng/g. The concentration at 12 h [1, 13] was 2 ± 1.9 ng/g, the concentration at 24 h [1, 13] was 1.4 ± 1.5 ng/g and the concentration at 0.5 h [1, 14] was 277 ± 42.4 ng/mL. The concentration at 1 h [1, 14] was 119 ± 63.5 ng/mL, the concentration at 6 h [1, 14] was 16.8 ± 26.4 ng/mL and the concentration at 12 h [1, 14] was 2.4 ± 1.7 ng/mL. For the same compound, the concentration at 24 h [1, 14] was 0.3 ± 0.1 ng/mL, the “Peak concentration of PU-48 in brain” value [1] was 111.1 ± 23.3 ng/mL and the “Blood brain barrier crossing” value ([1]; inferred from brain concentration) was “could cross the blood brain barrier (BBB)”. For the same compound, the Tmax ([1]; thirteen tissues, read-out: Peak time (Tmax) of PU-48 in analyzed tissues) was 30 to 60 min, the concentration at 0.5 h [1, 15] was 266 ± 120 ng/g and the concentration at 1 h [1, 15] was 161 ± 64 ng/g. The concentration at 6 h [1, 15] was 15.2 ± 12.9 ng/g, the concentration at 12 h [1, 15] was 3.8 ± 5.7 ng/g and the concentration at 24 h [1, 15] was 9.9 ± 12 ng/g. The concentration at 0.5 h [1, 16] was 887 ± 235 ng/g, the concentration at 1 h [1, 16] was 2020 ± 822 ng/g and the concentration at 6 h [1, 16] was 509 ± 160 ng/g. The concentration at 12 h [1, 16] was 104 ± 28.4 ng/g, the concentration at 24 h [1, 16] was 7 ± 3.1 ng/g and the concentration at 24 h ([1]; tissues except liver and colon, read-out: Concentrations of PU-48 in tissues except liver and colon) was < 10 ng/g. For the same compound, the Diuretic activity ([2]; rodents, compared to the other thienoquinolin lead compounds) was “more potent diuretic activity” and the Diuretic activity ([2]; wild-type and UT-gene knockout mice) was “potent diuretic activity”.
